Laboratory results: patent US20030021795A1, “Use of coiled-coil structural scaffold to generate structure-specific peptides” (priority 2000, published 2003)
Like-named read-outs stand apart in the source and are kept apart here. Square brackets hold non-standard residues; d marks the D form. Ends that are not written are not given here. Nle = CCCC[C@H](N)C(=O)O

Columns and labels:
[1] = CD spectroscopy (helical content/conformation of peptides); assay type: physicochemical; conditions: for conformation by CD in benign buffer: benign buffer (50 mM KH2PO4, 50 mM KCl, pH 7.0), absence of TFE
Experimental: Circular dichroism (CD) spectroscopy was performed using a Jasco J-500C spectropolarimeter (Jasco, Easton, Md.) equipped with a Jasco DP-500N data processor. A 10-fold dilution of an ˜[…] stock solution of the disulfide-linked peptide was loaded into a 0.02 cm fused silica cell and ellipticity scanned from 190 to 250 nm. […] A Lauda water bath (model RMS, Brinkmann Instruments, Rexdale, Ont.) was used to control the temperature of the cell. CD spectra were the average of four scans obtained by collecting data at 0.1 nm intervals from 250 to 190 nm.

[2] = Thermal denaturation monitored by [θ]222; assay type: physicochemical
Description: The stability of the peptides may be determined by thermal denaturation assays or chemical denaturation assays such as the guanidine chloride denaturation assay. Such assays are known to those skilled in the art. The stability of the peptides may also be indirectly assessed by inhibition ELISA, wherein the ability of a peptide to inhibit the interaction between an antigen and an antibody serves as an indicator of how stable the peptide is in assuming the necessary conformation to compete with the antigen for the antibody.
In order to determine the stability of CVX0270, a thermal denaturation study was undertaken.

anti-Strep serum = assay type: binding, mouse
[3] = test system: Coiled-Coil Strep Antigen (Strep-BSA coating antigen); assay type: in vivo, Balb/c mice; conditions: for Murine Sera (Day 49) OD 405 nm, Strep-BSA coating antigen: immunogen dose 20 μg
[4] = test system: Coiled-Coil Strep Antigen; assay: Isotyping ELISA of mouse serum antibodies after i.p. immunization; assay type: in vivo, Balb/c mice; conditions: immunogen dose 20 μg
[5] = test system: Streptococcus pneumoniae serotype 1; assay type: cell-based; conditions: antiserum Day 49; immunogen dose 20 μg
[6] = test system: Streptococcus pneumoniae serotype 3; assay type: cell-based; conditions: antiserum Day 49; immunogen dose 20 μg
[7] = test system: Streptococcus pneumoniae serotype 5; assay type: cell-based; conditions: antiserum Day 49; immunogen dose 20 μg
[8] = test system: Streptococcus pneumoniae serotypes (1, 3, and 5); assay: Opsonization assay with antiserum; assay type: cell-based

## Acetyl-CN1eGEIEALKKKIEELSDKIDELEKEIK-amide [CVX0270]
[1]; benign conditions
  ratio of the molar ellipticity at 222 and 208 ([θ]222/[θ]208): greater than 1.02
[1]; benign conditions (50 mM KH2PO4, 100 mM KCl, pH 7.0)
  conformation by CD under aqueous conditions: highly helical and found predominantly in the coiled-coil conformation
[1]; benign conditions (50 mM KH2PO4, 100 mM KCl, pH 7.0), 20° C.
  molar ellipticity at 222 nm ([θ]222): −29800
[1]; benign conditions (50 mM KH2PO4, 100 mM KCl, pH 7.0), 20° C., versus theoretical [θ]222 −33900
  helical content: 88%
[1]; in the presence of 50% TFE
  helical content: 101%
[2]
  stability in thermal denaturation experiment: very stable
[2]; at 75° C.
  % of original helicity retained: 77%
anti-Strep serum
  inhibition of anti-Strep serum binding (inhibition ELISA): significant inhibition

## CN1eG IEELEKK ITELKQK IDALENQ IHRLEQE IKELDES (C[Nle]GIEELEKKITELKQKIDALENQIHRLEQEIKELDES) [test peptide]
[1]
  conformation by CD in benign buffer: exists in helical form even in benign buffer
[2]
  stability in thermal denaturation experiment: much more stable than the native control

## CN1eG LEEAEKK ATEAKQK VDALENQ VHRLEQE LKEIDES (C[Nle]GLEEAEKKATEAKQKVDALENQVHRLEQELKEIDES) [native control]
[1]
  conformation by CD in benign buffer: needs the presence of TFE to form a helical structure

## EEESDKKDEEDAEKAE [Strep #2]
anti-Strep serum
  inhibition of anti-Strep serum binding (inhibition ELISA): no inhibition

## EIEALKKKIEELSDKIDELEKEIK [Strep #1]
anti-Strep serum
  inhibition of anti-Strep serum binding (inhibition ELISA): Inhibition was also seen

## TT: unconjugated tetanus toxoid carrier protein
[3]; 20 μg, 10 μg and 5 μg doses
  antibody titers to the Strep hapten: did not elicit any antibodies
[3]; serum dilution 1:2000
  Murine Sera (Day 49) OD 405 nm, Strep-BSA coating antigen: 0.11 OD 405 nm
[3]; serum dilution 1:4000
  Murine Sera (Day 49) OD 405 nm, Strep-BSA coating antigen: 0.04 OD 405 nm
[3]; serum dilution 1:8000
  Murine Sera (Day 49) OD 405 nm, Strep-BSA coating antigen: 0.01 OD 405 nm
[3]; serum dilution 1:16000
  Murine Sera (Day 49) OD 405 nm, Strep-BSA coating antigen: 0.06 OD 405 nm
[3]; serum dilution 1:32000
  Murine Sera (Day 49) OD 405 nm, Strep-BSA coating antigen: 0.00 OD 405 nm
[3]; serum dilution 1:64000
  Murine Sera (Day 49) OD 405 nm, Strep-BSA coating antigen: 0.00 OD 405 nm
[3]; serum dilution 1:128000
  Murine Sera (Day 49) OD 405 nm, Strep-BSA coating antigen: 0.00 OD 405 nm
[3]; serum dilution 1:256000
  Murine Sera (Day 49) OD 405 nm, Strep-BSA coating antigen: 0.00 OD 405 nm
[4]; sera day 6
  Isotype IgG1: 0.06 O.D. 405 nm
  Isotype IgG2a: 0.02 O.D. 405 nm
  Isotype IgG2b: 0.01 O.D. 405 nm
  Isotype IgG3: 0.01 O.D. 405 nm
[4]; sera day 14
  Isotype IgG1: 0.05 O.D. 405 nm
  Isotype IgG2a: 0.00 O.D. 405 nm
  Isotype IgG2b: 0.00 O.D. 405 nm
  Isotype IgG3: 0.01 O.D. 405 nm
[4]; sera day 35
  Isotype IgG1: 0.08 O.D. 405 nm
  Isotype IgG2a: 0.01 O.D. 405 nm
  Isotype IgG2b: 0.01 O.D. 405 nm
  Isotype IgG3: 0.01 O.D. 405 nm
[4]; sera day 49
  Isotype IgG1: 0.44 O.D. 405 nm
  Isotype IgG2a: 0.03 O.D. 405 nm
  Isotype IgG2b: 0.02 O.D. 405 nm
  Isotype IgG3: 0.05 O.D. 405 nm
[5]
  Percent Reduction of CFU Type 1: 7%
[6]
  Percent Reduction of CFU Type 3: 6%
[7]
  Percent Reduction of CFU Type 5: 7%
[8]
  reduction in colony forming units by antisera: Little or no reduction in colony forming units
